Experiments:
[1] = target: T1, RARγ (Homo sapiens, UniProt P13631); assay: ligand binding assay, RARγ; conditions: for Kd: Table 9 (Formula F), read-out: RAR γ Kd
T1 sequence (P13631 1-454): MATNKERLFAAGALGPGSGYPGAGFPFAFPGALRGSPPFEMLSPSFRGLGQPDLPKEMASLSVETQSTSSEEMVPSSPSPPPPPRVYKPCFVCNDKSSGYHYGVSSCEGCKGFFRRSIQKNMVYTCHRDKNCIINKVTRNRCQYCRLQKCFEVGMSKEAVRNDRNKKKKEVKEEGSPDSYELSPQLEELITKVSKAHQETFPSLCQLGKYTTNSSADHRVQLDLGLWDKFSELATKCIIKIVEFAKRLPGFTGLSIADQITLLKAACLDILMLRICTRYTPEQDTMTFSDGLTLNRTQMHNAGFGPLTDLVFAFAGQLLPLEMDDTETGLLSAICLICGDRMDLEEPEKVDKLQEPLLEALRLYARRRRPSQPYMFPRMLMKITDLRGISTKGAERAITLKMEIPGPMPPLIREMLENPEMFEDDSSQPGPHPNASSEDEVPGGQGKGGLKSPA
In short: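 Binding of compounds to several retinoid receptor subtypes was measured. Results are given as Ki values in nanomolar concentration, derived per Cheng et al.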

[2] = target: T2, RARγ (Homo sapiens, UniProt P13631); assay: chimeric receptor transactivation assay, RARγ; type: cell-based; conditions: read-out: RAR Trans. EC50 γ
T2 sequence (P13631 185-419 limits assumed): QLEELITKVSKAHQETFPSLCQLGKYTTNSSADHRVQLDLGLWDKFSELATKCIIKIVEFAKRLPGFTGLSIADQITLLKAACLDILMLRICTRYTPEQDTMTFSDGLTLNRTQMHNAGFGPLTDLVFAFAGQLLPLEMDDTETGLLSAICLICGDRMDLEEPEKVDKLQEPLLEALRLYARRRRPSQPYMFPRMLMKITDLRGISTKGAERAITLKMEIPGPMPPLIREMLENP
Source text: Specifically, one such assay is a chimeric receptor transactivation assay which tests for agonist-like activity in the R RAPE and RAR7 receptor subtypes, and which is based on work published by Feigner, P. L. and Holm, M (1989) Focus, 112 is described in detail in U.S. Pat. No. 5,455,265. The specification of U.S. Pat. No. 5,455,265 is hereby expressly incorporated by reference. A holoreceptor transactivation assay and a ligand binding assay which measure the antagonist/agonist like activity of the compounds of the invention, or their ability to bind to the several retinoid receptor subtypes, respectively, are described in published PCT Application No. WO WO93/11755 (particularly on pages 30-33 and 37-41) published on Jun. 24, 1993, the specification of which is also incorporated herein by reference. A detailed experimental procedure for holoreceptor transactivations has been described by Heyman et al. Cell 68, 397-406, (1992); Allegretto et al. J. Biol. Chem. 268, 26625-26633, and Mangelsdorf et al. The Retinoids: Biology, Chemistry and Medicine, pp 319-349, Raven Press Ltd., New York, which are expressly incorporated herein by reference. The results obtained in this assay are expressed in EC50 numbers, as they are also in the chimeric receptor transactivation assay. The results of the ligand binding assay are expressed in Ki numbers. […]
Efficacy in a transactivation assay is expressed as a percentage of the maximum potency attained by the compound compared to a standard which, in this case, is the compound named (2E,4E,1′S,2′S)-3-methyl-5-[2′-methyl-2′-(5,5,8,8-tetramethyl-5,6,7,8-tetrahydro-naphthalen-2-yl)-cyclopropyl]-penta-2,4-dienoic acid. […]
(§1) Generally speaking, in the tables disclosing the results of transactivation and binding assays the numbers in parentheses indicate efficacy as a percentage compared to the standard compound, (2E,4E,1′S,2′S)-3-methyl-5-[2′-methyl-2′-(5,5,8,8-tetramethyl-5,6,7,8-tetrahydro-naphthalen-2-yl)cyclopropyl]-penta-2,4-dienoic acid and the other numbers indicate the measured EC50 and K; in nanomolar concentration.

[3] = target: T3, RXRγ (UniProt P28705); assay: ligand binding assay, RXRγ; conditions: Table 9 (Formula F); read-out: RXR γ Kd
T3 sequence (P28705 1-463): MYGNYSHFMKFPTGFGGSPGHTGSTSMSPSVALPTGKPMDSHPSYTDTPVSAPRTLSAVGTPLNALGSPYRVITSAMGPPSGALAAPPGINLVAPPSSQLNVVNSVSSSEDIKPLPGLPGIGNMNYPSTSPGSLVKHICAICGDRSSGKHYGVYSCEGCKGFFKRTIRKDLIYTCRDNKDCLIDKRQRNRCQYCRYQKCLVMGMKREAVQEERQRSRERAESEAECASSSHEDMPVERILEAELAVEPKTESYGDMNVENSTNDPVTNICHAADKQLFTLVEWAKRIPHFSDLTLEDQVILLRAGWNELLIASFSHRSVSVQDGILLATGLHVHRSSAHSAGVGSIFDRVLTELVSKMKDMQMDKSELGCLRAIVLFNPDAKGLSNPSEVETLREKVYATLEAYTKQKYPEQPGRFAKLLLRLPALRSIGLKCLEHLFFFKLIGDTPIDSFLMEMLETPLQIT
Source text: (§2) Specifically, one such assay is a chimeric receptor transactivation assay which tests for agonist-like activity in the R RAPE and RAR7 receptor subtypes, and which is based on work published by Feigner, P. L. and Holm, M (1989) Focus, 112 is described in detail in U.S. Pat. No. 5,455,265. The specification of U.S. Pat. No. 5,455,265 is hereby expressly incorporated by reference. A holoreceptor transactivation assay and a ligand binding assay which measure the antagonist/agonist like activity of the compounds of the invention, or their ability to bind to the several retinoid receptor subtypes, respectively, are described in published PCT Application No. WO WO93/11755 (particularly on pages 30-33 and 37-41) published on Jun. 24, 1993, the specification of which is also incorporated herein by reference. A detailed experimental procedure for holoreceptor transactivations has been described by Heyman et al. Cell 68, 397-406, (1992); Allegretto et al. J. Biol. Chem. 268, 26625-26633, and Mangelsdorf et al. The Retinoids: Biology, Chemistry and Medicine, pp 319-349, Raven Press Ltd., New York, which are expressly incorporated herein by reference. The results obtained in this assay are expressed in EC50 numbers, as they are also in the chimeric receptor transactivation assay. The results of the ligand binding assay are expressed in Ki numbers. (See Cheng et al. Biochemical Pharmacology Vol. 22 pp 3099-3108, expressly incorporated herein by reference.)
as §1

[4] = target: T4, RARα (Homo sapiens, UniProt P10276); assay: chimeric receptor transactivation assay, RARα; type: cell-based; conditions: for EC50: chimeric receptor transactivation, read-out: RAR Trans. EC50 α; for Emax: percentage compared to the standard compound, read-out: RAR Trans. efficacy (number in parentheses) α
T4 sequence (P10276 183-417 limits assumed): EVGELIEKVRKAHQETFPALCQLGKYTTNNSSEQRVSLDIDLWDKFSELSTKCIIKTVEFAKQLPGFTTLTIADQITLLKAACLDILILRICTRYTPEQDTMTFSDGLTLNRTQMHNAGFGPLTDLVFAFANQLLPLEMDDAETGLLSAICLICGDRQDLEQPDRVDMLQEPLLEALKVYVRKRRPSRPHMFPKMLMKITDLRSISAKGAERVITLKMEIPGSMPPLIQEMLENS
Source text: as §2
Efficacy in a transactivation assay is expressed as a percentage of the maximum potency attained by the compound compared to a standard which, in this case, is the compound named (2E,4E,1′S,2′S)-3-methyl-5-[2′-methyl-2′-(5,5,8,8-tetramethyl-5,6,7,8-tetrahydro-naphthalen-2-yl)-cyclopropyl]-penta-2,4-dienoic acid. This standard compound is described in U.S. Pat. No. 6,114,533.
The specification of this application for patent is organized in several sections in accordance with structural Formulas A through F each of which discloses a group of preferred compounds within the scope of the invention. Tables that disclose the activity of certain exemplary compounds of the invention in the above-described RXR receptor transactivation and binding assays are found in the corresponding sections. […] The transactivation data pertaining to the activation of RXR receptors were obtained in the holoreceptor assay.
as §1

Ki ([1]; read-out: RAR Bind. Ki γ) [µM] | EC50 [2] [µM] | Kd [1] [µM] | Kd [3] [µM] | EC50 [4] [µM] | Emax [4] [%] | SMILES
9.2 | > 10 | – | – | – | – | CCOc1cc2c(cc1\C(C)=C(F)/C=C/C(C)=C/C(=O)O)C=CCC2(C)C [Compound A-76, (2E,4E,6E)-7-(3-Ethoxy-5,5-dimethyl-5,6-dihydro-naphthalen-2-yl)-6-fluoro-3-methyl-octa-2,4.6-trienoic acid]
– | 0.002 | – | – | – | – | CCOc1cc2c(cc1\C(CC)=C(F)/C=C/C(C)=C/C(=O)O)C=CCC2(C)C [Compound A-77]
– | – | 0.272 | 0.112 | 0.003 | 13 | CCOc1c(\C(=C(F)/C=C/C(C)=C/C(=O)O)C(C)C)cc2c(c1Br)C(C)(C)CC=C2C(C)C [Compound A-171, (2E,4E,6E)-7-(4-Bromo-3-ethoxy-8-isopropyl-5,5-dimethyl-5,6-dihydro-naphthalen-2-yl)-6-fluoro-3.8-dimethyl-nona-2.4,6-trienoic acid]
– | > 10 | 0.449 | 0.061 | 0.001 | 8 | CCOc1c(\C(CC)=C(F)/C=C/C(C)=C/C(=O)O)cc2c(c1Cl)C(C)(C)CC=C2C(C)C [Compound A-178, (2E,4E,6E)-7-(4-Chloro-3-ethoxy-8-isopropyl-5,5-dimethyl-5,6-dihydronaphthalen-2-yl)-6-fluoro-3-methyl-nona-2,4,6-trienoic acid]

— US6887896B1, “7-[(7-Alkoxy)-chrom-3-en-6-yl]-heptatrienoic acid and 7-[(3-alkoxy)-5,6-dihydronaphthalen-2-yl]-heptatrienoic acid derivatives having serum glucose reducing activity” (Allergan, Inc., priority 2003, dated 2005)
